Literature values in patent publication US8623418B2, “Pharmaceutical composition” (Alpharma Pharmaceuticals LLC, priority 2007, dated 2014).

Details: in vivo

O=C1CC[C@@]2(O)[C@H]3Cc4ccc(O)c5c4[C@@]2(CCN3CC2CC2)[C@H]1O5 [naltrexone]
parent drug and metabolites excreted by the kidney: 53-79 % of the dose
